Here are results for 2 compounds from patent publication US20100300896A1, “Redox Molecules And Methods Of Making The Same” (BAYER HEALTHCARE LLC, priority 2009, published 2010).

In one data set the test system is glucose dehydrogenase. The data set can be described thus: Output current from mediator in a mixture containing glucose and glucose dehydrogenase. In kind it is biochemical. The settings on record: mediator 3 mg/mL, 10 mM PBS buffer (pH 7.4), input potential 100 mV vs. Ag/AgCl, glucose 0 to 1.2 mM. As for the experimental part:
FIG. 2 depicts a graph illustrating output currents from mediator oxidation in response to an input potential when the mediator is in a mixture containing glucose and glucose dehydrogenase. The mediator was the composition used in FIGS. 1A and 1B. A 5 mm glassy carbon electrode served as a WE, Ag/AgCl as a RE, and platinum gauAge as a CE. The composition was present at a concentration of 2 mg/mL in a mixture containing 10 mM PBS buffer (pH 7.4), and the input potential was 100 mV vs. Ag/AgCl. […] Thus, the composition may be used as a mediator for the redox reaction correlating the glucose concentration in a sample with an electrical signal. Referring to FIG. 2, a compound having general formula (III), where X is bromine, can be used as a mediator for the redox reaction correlating the glucose concentration of a sample with an electrical signal. A 5 mm glassy carbon electrode served as a WE, Ag/AgCl as a RE, and platinum gauAge as a CE. The mediator was present at a concentration of 3 mg/mL in a mixture containing 10 mM PBS buffer (pH 7.4), and the input potential was 100 mV vs. Ag/AgCl. […] Thus, the composition may be used as a mediator for the redox reaction correlating the glucose concentration in a sample with an electrical signal.

The nature of data set [1]: Voltammetric scan of the mediator: output current in response to input potential (glassy carbon WE, Ag/AgCl RE, platinum CE). The settings on record: for redox potential: mediator 1 mg/mL. Format: physicochemical. The text has this:
FIGS. 1A and 1B depict graphs illustrating output currents from mediator reduction in response to an input potential. The mediator was a composition including a 3:2 molar mixture of a first compound having the general formula (I), and a second compound having the general formula (II), where X is bromine and each compound is present as the disodium salt. A 5 mm glassy carbon electrode served as a working electrode (WE), Ag/AgCl as a reference electrode (RE), and platinum gauAge as a counter electrode (CE). In FIG. 1A, the mediator composition was present at a concentration of 1 mg/mL in a mixture containing 10 mM PBS buffer (pH 7.4), and the input potential was scanned between −200 mV and 200 mV vs. Ag/AgCl. In FIG. 1B, the mediator composition was present at a concentration of 1 mg/mL in a mixture containing 100 mM PBS (pH 7.0) and 100 mM NaCl buffer solution, and the input potential was scanned between −100 mV and 200 mV vs. Ag/AgCl. Referring to FIG. 1B, when the scan rate was less than 50 mV/s, the oxidative and reductive peak separation was around 30-40 mV. […] The redox potential of the mediator composition of FIGS. 1A and 1B was about −3 mV vs. Ag/AgCl in the 10 mM PBS buffer (pH 7.4), and was about 40 mV vs. Ag/AgCl in the mixture of 100 mM PBS (pH 7.0) and 100 mM NaCl buffer. These redox potentials are similar to that of the conventional mediator (E)-2-(3H-phenothiaAgine-3-ylideneamino)benAgene-1,4-disulfonic acid (Structure A), which is −50 mV vs. Ag/AgCl. FIG. 5A and FIG. 5B depict graphs illustrating output currents from mediator reduction in response to an input potential. The mediator was a compound having general formula (III), where X is bromine. A 5 mm glassy carbon electrode served as a WE, Ag/AgCl as a RE, and platinum gauAge as a CE. In FIG. 5A, the mediator was present at a concentration of 1 mg/mL in a mixture containing 10 mM PBS buffer (pH 7.4), and the input potential was scanned between −200 mV and 200 mV vs. Ag/AgCl. […]

Data set [2] is described as follows: Open circuit voltage between working electrode and reference electrode. In kind it is physicochemical. The note with it: 10 mM PBS buffer. As for the experimental part:
The open circuit voltage between the WE and the RE also was measured for the mediator composition of FIGS. 1A and 1B. The open circuit voltage is a measure of the redox state of the mediator.
The open circuit voltage between the WE and the RE also was measured for the compound having general formula (III), where X is bromine.

The conditions of data set [3]: conventional mediator, buffer not stated; cited from earlier work.

Molecules are shown by their SMILES. Read-outs that look alike come from different tables or passages of the source.

Consider `O=S(=O)(O)c1ccc(S(=O)(=O)O)c(N=c2cc3sc4ccccc4nc-3cc2OCCCCCCCCBr)c1` [2-(2-(8-bromooctanoxy)-3H-phenothiaAgin-3-ylideneamino)benAgene-1,4-disulfonic acid], for which, in the data set with glucose dehydrogenase, the “output current vs glucose concentration” value was “output current increased as the glucose concentration increased from 0 to 1.2 mM”. Also, the redox potential entry was “about 3 mV vs. Ag/AgCl” in data set [1] (10 mM PBS buffer (pH 7.4)); “about 15 mV vs. Ag/AgCl” in data set [1] (mixture of 100 mM PBS (pH 7.0) and 100 mM NaCl buffer). In data set [1] (scan rate less than 50 mV/s, 100 mM PBS (pH 7.0) and 100 mM NaCl buffer, 1 mg/mL), the “oxidative and reductive peak separation” value is given as 30-40 mV. In data set [2], this compound displayed an open circuit voltage of 111 mV vs. Ag/AgCl.

On to `O=S(=O)(O)c1ccc(S(=O)(=O)O)c(/N=c2\ccc3nc4ccccc4sc-3c2)c1` [Structure A, (E)-2-(3H-phenothiaAgine-3-ylideneamino)benAgene-1,4-disulfonic acid], for which, in data set [3], the redox potential was −50 mV vs. Ag/AgCl.
